Experiments:
[1] = molecular target: T1, LasB (P. aeruginosa PAO1 culture supernatant) (Pseudomonas aeruginosa, UniProt P14756); assay: Elastin Congo Red (ECR) assay, elastin hydrolysis by dialyzed PAO1 culture supernatant; assay type: biochemical; conditions: 25 μM inhibitor
T1 construct: The mature LasB protein is a 33 kDa metalloprotease, which is secreted from P. aeruginosa; endogenous in cells; host or cells: P. aeruginosa PAO1 culture supernatant, filtered and dialyzed
Text: This was chosen as the starting point for a medicinal chemistry-driven lead optimization program aiming to improve potency and solubility whilst retaining selectivity against host metalloenzymes. All synthesized compounds were initially assessed in a fluorimetric assay measuring hydrolysis of a fluorogenic substrate Abz-Ala-Gly-Leu-Ala-4-nitrobenzylamide (Abz-AGLA-Nba) by purified LasB and IC50 values determined (Tables 1 and 2). Inhibition of elastin hydrolytic activity was confirmed using an orthogonal assay measuring hydrolysis of Elastin Congo Red (ECR) complex by LasB prepared directly from a P. aeruginosa culture supernatant (Tables 1 and 2). […] Aqueous solubility was determined for most compounds (Tables 1 and 2).
Inhibition of elastin hydrolysis by native LasB, secreted in P. aeruginosa culture supernatants, was measured using the Elastin Congo Red (ECR) assay. Culture supernatants from P. aeruginosa strain PAO1, grown in LB medium at 37 °C for 24 h, were filtered and dialyzed against 50 mM Tris-HCl pH 7.4, 2.5 mM CaCl2 solution at 4 °C and supplemented with 0.01%Triton X-100, 10 mg/mL ECR (Sigma) and 25 μM inhibitor compounds. The reaction mixture was incubated for 16 h at 37 °C with shaking before centrifugation and recovery of the supernatant and measurement of solubilized congo red by absorbance (OD495) using an EnSight multimode plate reader (PerkinElmer).

[2] = Cytotoxicity screening (MTS), HepG2; assay type: cell-based; conditions: human, HepG2 cells
Description: Bronchial smooth muscle cells (BSMC, Lonza CC-2576), small airway epithelial cells (SAEC, Lonza CC-2547), or HepG2 cells (ATCC HB-8065) were seeded in 96-well plates at a density of 25,000 per well. Culture of these cells throughout the protocol utilized incubation at 37 °C, 5% CO2 in a humidified atmosphere, with BSMC and SAEC cells cultured in cell-specific media (Lonza) and HepG2 cells cultured in RPMI 1640 medium containing Glutamax (Gibco) and 10% fetal bovine serum. Plates containing BSMC cells were collagen coated to assist with cell adhesion. Following an overnight settling period, media was replaced with fresh media, with, or without, compound. Compound concentrations tested were 1, 3, 10, 30, and 100 μM, in duplicate. The cells were incubated with compound for 24 h. Control (1% DMSO) and positive standards terfenadine- and salmeterol-treated groups were included for both cell lines. […] The reaction was stopped with 12.5 μL of 10% SDS, plates briefly shaken, and absorbance (490 nm) read using a Spectramax M5e plate reader (Molecular Devices). Percentages of viable cells were calculated as: (test sample Abs 490 nM-mean blank Abs 490 nm)/(mean control Abs 490 nM-mean blank Abs 490 nm) × 100.

[3] = molecular target: T2, LasB N68S, T120I, A122T, S241G, S436L (Pseudomonas aeruginosa, UniProt P14756, S241G/S436L); assay: LasB variant inhibition, culture supernatant: N68S, T120I, A122T, S241G, S436L; assay type: biochemical, P. aeruginosa
T2 construct: Most changes were identified in the mature peptide, however some occurred in the propeptide domain; endogenous in cells; host or cells: P. aeruginosa clinical CF isolate, culture supernatant
T2 sequence (P14756 198-498, looked up, stated change not applied): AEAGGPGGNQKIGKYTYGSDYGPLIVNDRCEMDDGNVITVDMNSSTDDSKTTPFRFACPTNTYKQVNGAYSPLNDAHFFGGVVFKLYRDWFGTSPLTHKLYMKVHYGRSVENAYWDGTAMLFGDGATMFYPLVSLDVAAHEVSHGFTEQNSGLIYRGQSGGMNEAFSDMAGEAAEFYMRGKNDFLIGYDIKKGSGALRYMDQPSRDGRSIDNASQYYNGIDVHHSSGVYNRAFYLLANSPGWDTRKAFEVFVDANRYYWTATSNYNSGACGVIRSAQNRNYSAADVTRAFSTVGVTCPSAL
Text: Compounds 12 and 16 were discovered as a result of optimizing potency against the LasB protein expressed from the wild-type (WT) reference strain P. aeruginosa PAO1. To understand the relative prevalence of the WT LasB protein versus other variants in clinical respiratory P. aeruginosa strains, the full-length lasB gene was amplified by PCR from 255 clinical isolates (obtained from CF sputum samples). […] Most changes were identified in the mature peptide, however some occurred in the propeptide domain, which could affect LasB processing (marked in italics in Table 4).
LasB inhibition assays were performed using purified LasB enzyme (1 ng/well) for compound screening or using culture supernatants (prepared as described in the ECR assay) for testing LasB variants. Hydrolysis of the fluorogenic peptide substrate 2-aminobenzoyl-Ala-Gly-Leu-Ala-4-nitrobenzylamide (Abz-AGLA-Nba; Peptide International) in 50 mM Tris-HCl (pH 7.4), supplemented with 2.5 mM CaCl2 was followed using an Envision microplate reader (PerkinElmer) at 315 nm excitation and 430 nm emission. […] IC50 values were determined from Hill plots using Dotmatics Studies ELN software. For the mechanism of inhibition studies, hydrolysis rates were measured in the presence of variable concentrations of substrate and inhibitor, and the inhibition constant (Ki) was determined using Dixon plot analysis.[31]

T1 sequence (P14756 198-498): as the sequence (P14756 198-498, looked up, stated change not applied) above

| SMILES | Elastin hydrolysis @ 25 μM (% inh) [1] [% inh] | IC50 at 24 h [2] [µM] | IC50 [3] [µM] |
| --- | --- | --- | --- |
| COc1cc2sc(CNC(=O)C3(CC(=O)O)Cc4ccccc4C3)nc2cc1OCCC[N+](C)(C)C [Compound 12] | 64 | > 100 | 0.267 |
| COc1cc2sc(CNC(=O)C3(CC(=O)O)Cc4cc(F)c(F)cc4C3)nc2cc1OCCC[N+](C)(CCO)CCO [Compound 16] | 73 | > 100 | 0.253 |

From publication PMC9926489, “Chemical Optimization of Selective Pseudomonas aeruginosa LasB Elastase Inhibitors and Their Impact on LasB-Mediated Activation of IL-1β in Cellular and Animal Infection Models” (ACS Infectious Diseases, 2023)
